Measured values as given in PMC10917816, “Synthesis and evaluation of coumarin derivatives on antioxidative, tyrosinase inhibitory activities, melanogenesis, and in silico investigations” (Scientific Reports, 2024).
Entries after “also recorded” stand apart in the source; their conditions may differ. Where two headings read alike, the source gives them in different places.

Experiments:
[1] = Lipid peroxidation inhibitory activity (thiobarbituric acid test, linoleic acid); conditions: at 1 mg/ml of tested compound; TBA test
mushroom tyrosinase [2] = target: T1, mushroom tyrosinase (Agaricus bisporus, UniProt C7FF04); test: Mushroom tyrosinase activity assay (L-DOPA substrate); assay type: biochemical; conditions: for activity at 100 µM: <100 inhibitor, >100 activator; for Activity (inhibitor or activator of mushroom tyrosinase): classified from %activity at 100 µM (<100 inhibitor, >100 activator)
Method: Samples were dissolved in a mixture of DMSO and the phosphate buffer solution (40%DMSO, 20 µL) and were added into a 96-well microplate filled with phosphate buffer (20 mM, pH 6.8, 140 µL), mushroom tyrosinase (30 U/mL, 20 µL). After 10 min of pre-incubation at room temperature (25 °C), 20 µL of a 0.85 mM L-DOPA (3,4-dihydroxyphenylalanine) solution in phosphate buffer was added to the mixture. (Final concentration of the tested compound equaled 100 µM and final DMSO content equaled 4%). […] Instead of an inhibitor solution, phosphate buffer was added as the negative control. The percentage of tyrosinase activity was calculated as follows: %Activity = (Sample) × 100/Blank, where Blank = (OD of Blank solution at 10 min)—(OD of Blank solution at 0 min) and Sample = (OD of Sample solution at 10 min)—(OD of Sample solution at 0 min). Each sample was analyzed in triplicate (n = 3). […] Each sample was examined in triplicate.
Target sequence in this assay (C7FF04 1-392): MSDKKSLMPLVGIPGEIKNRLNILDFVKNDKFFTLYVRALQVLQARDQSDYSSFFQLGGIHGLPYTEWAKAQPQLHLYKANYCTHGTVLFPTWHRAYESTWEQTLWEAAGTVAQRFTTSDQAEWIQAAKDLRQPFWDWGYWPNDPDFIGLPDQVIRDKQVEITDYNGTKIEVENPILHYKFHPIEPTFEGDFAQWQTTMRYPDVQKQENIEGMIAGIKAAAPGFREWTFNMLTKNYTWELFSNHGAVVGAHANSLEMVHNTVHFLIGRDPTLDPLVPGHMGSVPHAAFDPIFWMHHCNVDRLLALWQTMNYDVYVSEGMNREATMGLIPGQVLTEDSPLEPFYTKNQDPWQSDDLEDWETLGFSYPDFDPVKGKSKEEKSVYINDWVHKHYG

B16F10 melanoma cells = test: Cell viability assay (MTT); assay type: cell-based, Mus musculus; conditions: 48 h
Method: (§1) B16F10 cells were incubated with compounds 13 (25–100 µM) and 14 (25–150 µM) for 48 h. KA (50–200 µM) and 8-MOP (50–150 µM) were used as reference compounds for the tyrosinase inhibitor and the activator, respectively. […] (%viability decreased to 50%).
(§2) B16F10 cells (ATCC-CRL-6475, USA) were cultured in Dulbecco’s modified eagle medium (DMEM) containing 10% fetal bovine serum (FBS), 100 U/mL penicillin, and 1 μg/mL streptomycin. Cell viability was evaluated using the MTT assay. B16F10 cells (5 × 10^3 cells/well) were cultured in a 96-well plate at 37 °C in a 5% CO2 incubator for 24 h. Tested compounds dissolved in DMSO/H2O (40% v/v) at different concentrations were added to sample wells, and the cells were further incubated at 37 °C in a 5% CO2 incubator for 48 h. Then, 50 µL of methylthiazolyldiphenyl-tetrazolium bromide (MTT) solution (0.5 mg/ml in 10 mM phosphate buffer, pH 7.4) was added to each well and left under a CO2 incubator for 2 h. The formazan crystals formed were dissolved in DMSO, and the absorbance was measured at 570 nm. Percent viability was calculated as the percent of surviving cells in the well compared to the control cells.

[3] = Cell viability assay (MTT); assay type: cell-based, Mus musculus; conditions: mouse, B16F10 melanoma cells
Method: as §1, §2

B16F10 cells = test: Melanin content assay; assay type: cell-based, Mus musculus; conditions: 48 h
Method: Compound 13 and compound 14 were also determined for their melanogenesis activities in the B16F10 cells. Intracellular melanin content was measured. […] However, the increase in melanin content in the cells was lower than cells treated with 8-MOP (Fig. 8B).
The method for the melanin content assay was modified from Lee et al.[37]. B16F10 (8 × 10^4 cell/mL) cells were seeded in a 6-well plate and incubated at 37 °C in a 5% CO2 incubator for 24 h. The tested and reference compounds in various concentrations were mixed with α-melanocyte stimulating hormone (α-MSH, 10 nM) and added to the well. The cells were continuously incubated at 37 °C for 48 h. Then, the cells were washed twice with 10 mM phosphate buffer pH 7.4. 1 M NaOH (0.2 mL) was added to each well and warmed at 65 °C for 1 h. The mixture was centrifuged at 12,000 rpm for 10 min. The absorbance of the supernatant was measured at 405 nm. The percent melanin content in the treatment group was obtained from the absorbance and calculated as a percentage compared to the untreated group.

mushroom tyrosinase [4] = target: T1, mushroom tyrosinase; test: Enzyme kinetic study (Lineweaver–Burk plot); assay type: biochemical; design: purchased Sigma-Aldrich or Merck AG; conditions: double-reciprocal (Lineweaver–Burk) plots
Method: Double-reciprocal plots were used to investigate the mechanisms of mushroom tyrosinase inhibition by compound 13 (Fig. 2).
Utilizing the same protocol as the tyrosinase activity assay, an enzyme kinetics study was conducted with compound 13. A Michaelis–Menten plot was generated by varying the substrate concentration (25–10,000 µM) and reaction rate under conditions with and without inhibitors. A Lineweaver–Burk plot was generated, and the inhibition mode of the inhibitor was determined based on the variation of Km and Vmax as the inhibitor concentration changed.
Target sequence in this assay (C7FF04 1-392 limits assumed): as the sequence (C7FF04 1-392) above

murine tyrosinase = conditions: broad range; cited from earlier work
[5] = at 100 µM of tested compound, read-out: Mushroom tyrosinase %Activity ± S.D.

Compound	Lipid peroxidation %Inhibition ± S.D. [1] [%]	activity at 100 µM (mushroom tyrosinase [2]; [5]) [%]	Activity (inhibitor or activator of mushroom tyrosinase) (mushroom tyrosinase [2])	melting point [°C]	further results
Cc1cc(C(C)(C)C)c(O)c(C(C)(C)C)c1 [BHT, butylated hydroxytoluene, reference compound]	62.90 ± 3.56				
CCOC(=O)C(Cc1c[nH]c2ccccc12)NC(=O)Cc1cc(=O)oc2cc(OC)c(O)cc12 (stereo not drawn) [Compound 17]	91.84 ± 5.39	75.9 ± 8.95	Inhibitor	173 to 174	
CCOC(=O)C(Cc1ccccc1)NC(=O)Cc1cc(=O)oc2cc(OC)ccc12 (stereo not drawn) [Compound 11, Ethyl 2-(2-(7-methoxy-2-oxo-2H-chromen-4-yl)acetamido)-3-phenylpropanoate]	87.68 ± 1.09	81.3 ± 3.72	Inhibitor	144 to 145	
CCOC(=O)C(Cc1cc2ccccc2[nH]1)NC(=O)Cc1cc(=O)oc2cc(O)ccc12 (stereo not drawn) [Compound 9, Ethyl 2-(2-(7-hydroxy-2-oxo-2H-chromen-4-yl)acetamido)-3-(1H-indol-2-yl)propanoate]	77.57 ± 4.11	98.3 ± 2.55	Inhibitor	185 to 188	
CCOC(=O)C(Cc1ccccc1)NC(=O)Cc1cc(=O)oc2cc(O)ccc12 (stereo not drawn) [Compound 7, Ethyl 2-(2-(7-hydroxy-2-oxo-2H-chromen-4-yl)acetamido)-3-phenylpropanoate]	98.66 ± 1.57	86.2 ± 10.5	Inhibitor	139 to 140	
CCOC(=O)C(Cc1c[nH]c2ccccc12)NC(=O)Cc1cc(=O)oc2cc(OC)ccc12 (stereo not drawn) [Compound 13]	67.88 ± 5.48	51.1 ± 9.45	Inhibitor	162 to 163	Cytotoxicity against B16F10 cells (B16F10 melanoma cells; 25–50 μM): did not show cytotoxicity; viability at 48 h, 75 µM ([3]; 75 µM): 50%; viability at 48 h ([3]; 25–50 µM): > 80%; Effect on melanogenesis (intracellular melanin content) in B16F10 cells (B16F10 cells; 25 μM, with α-MSH, compared with KA at 100 μM): inhibited melanogenesis equally to KA at 100 μM; Effect on melanogenesis (intracellular melanin content) in B16F10 cells (B16F10 cells; 50 μM, with α-MSH, compared with KA at 100 μM): suppressed melanogenesis in B16F10 cells with two times higher potency than KA; also recorded: suppressed melanogenesis with approximately two times higher potency than KA at 100 μM; also recorded: higher melanin suppression at a lower concentration (50 μM) than KA (100 μM); Mechanism of mushroom tyrosinase inhibition (mushroom tyrosinase [4]): uncompetitive inhibition; also recorded: uncompetitively inhibited the tyrosinase enzyme; also recorded: uncompetitive tyrosinase inhibitor
O=C(Cc1cc(=O)oc2cc(O)ccc12)NCCc1ccc(O)cc1 [Compound 10, N-(4-hydroxyphenethyl)-2-(7-hydroxy-2-oxo-2H-chromen-4-yl)acetamide]	27.51 ± 2.78	121 ± 7.51	Activator	223 to 225	
CCOC(=O)C(Cc1ccc(O)cc1)NC(=O)Cc1cc(=O)oc2cc(OC)ccc12 (stereo not drawn) [Compound 12, Ethyl 2-(2-(7-methoxy-2-oxo-2H-chromen-4-yl)acetamido)-3-(4-hydroxyphenyl) propanoate]	77.84 ± 3.25	113 ± 8.16	Activator	154 to 155	
CCOC(=O)C(Cc1ccc(O)cc1)NC(=O)Cc1cc(=O)oc2cc(OC)c(O)cc12 (stereo not drawn) [Compound 16, Ethyl 2-(2-(6-hydroxy-7-methoxy-2-oxo-2H-chromen-4-yl)acetamido)-3-(4-hydroxyphenyl) propanoate]	79.31 ± 2.77	100 ± 3.13	Activator	198 to 200	
COc1ccc2c(CC(=O)NCCc3ccc(O)cc3)cc(=O)oc2c1 [Compound 14, N-(4-hydroxyphenethyl)-2-(7-methoxy-2-oxo-2H-chromen-4-yl)acetamide]	26.66 ± 1.67	123 ± 13.4	Activator	152 to 153	Cytotoxicity against B16F10 cells (B16F10 melanoma cells; 25–100 μM): did not show cytotoxicity; Effect on melanogenesis (intracellular melanin content) in B16F10 cells (B16F10 cells; 25–100 μM, compared with 8-MOP): melanogenesis enhancement in B16F10 cells in a dose-dependent manner, however, inferior to the 8-MOP; also recorded: effectively enhanced melanogenesis in B16F10 cells in a dose-dependent manner
O=c1cc(CO)occ1O [KA, kojic acid]					Activity against murine tyrosinase (murine tyrosinase): > 100 µM
COc1cc2oc(=O)cc(CC(=O)NCCc3ccc(O)cc3)c2cc1O [Compound 18, N-(4-hydroxyphenethyl)-2-(6-hydroxy-7-methoxy-2-oxo-2H-chromen-4-yl)acetamide]	63.40 ± 0.89	115 ± 3.87	Activator	227 to 228	
CCOC(=O)C(Cc1ccccc1)NC(=O)Cc1cc(=O)oc2cc(OC)c(O)cc12 (stereo not drawn) [Compound 15, Ethyl 2-(2-(6-hydroxy-7-methoxy-2-oxo-2H-chromen-4-yl)acetamido)-3-phenylpropanoate]	98.06 ± 0.54	90.8 ± 12.4	Inhibitor	184 to 185	
COc1c2occc2cc2ccc(=O)oc12 [Compound 8-MOP, 8-methoxypsoralen, reference compound]			Activator		activity at 100 µM (mushroom tyrosinase [2]; read-out: Mushroom tyrosinase %Activity ± S.D., at 100 µM of tested compound): 101 ± 6.18%
CCOC(=O)C(Cc1ccc(O)cc1)NC(=O)Cc1cc(=O)oc2cc(O)ccc12 (stereo not drawn) [Compound 8, Ethyl 2-(2-(7-hydroxy-2-oxo-2H-chromen-4-yl)acetamido)-3-(4-hydroxyphenyl)propanoate]	44.32 ± 4.16	107 ± 9.89	Activator	152 to 154	
